US8916527B2, “Antibiotic macrocycle compounds and methods of manufacture and use thereof” (Optimer Pharmaceuticals, Inc., priority 2007, dated 2014)
Where two headings read alike, the source gives them in different places.

Key:
[1] = system: C. difficile ATCC strain 700057; experiment: Effect of fecal material on in vitro activity, microbroth dilution MIC; type: cell-based; settings: for MIC: Clostridioides difficile
[2] = system: ORG 84 E. faecium ATCC 700221 VRE; experiment: MIC, aerobic panel, microbroth dilution method; settings: Enterococcus faecium, read-out: Aerobic Panel MIC
[3] = system: ORG 83 E. faecalis ATCC 29212; experiment: MIC, aerobic panel, microbroth dilution method; settings: Enterococcus faecalis, ATCC29212, read-out: Aerobic Panel MIC
E. faecium = experiment: MIC profiling; settings: Enterococcus faecium
[4] = system: Enterococcus faecium, Vancomycin resistant clinical strain ORG#364; experiment: MIC, microbroth dilution method
[5] = system: Enterococcus faecium, ATCC 19434; experiment: MIC, microbroth dilution method
[6] = system: Peptoniphilus (formerly Peptococcus) asaccharolyticus, ATCC 29743; experiment: MIC, agar dilution method; type: cell-based; settings: Peptoniphilus asaccharolyticus ATCC 29743
[7] = system: gram positive bacteria (C. difficile, C. perfringenes, B. longum, F. magna, P. asaccharolyticus, P. anaerobius, M. micros, L. casei); type: cell-based
[8] = system: Enterococcus faecium, Vancomycin resistant clinical strain ORG#534; experiment: MIC, microbroth dilution method
[9] = system: Finegoldia (formerly Peptococcus) magna, ATCC 29328; experiment: MIC, agar dilution method; type: cell-based; settings: Finegoldia magna ATCC 29328
[10] = system: Staphylococcus aureus, Methicilin resistant clinical strain ORG#578; experiment: MIC, microbroth dilution method
[11] = system: Lactobacillus. casei, ATCC 393; experiment: MIC, agar dilution method; type: cell-based; settings: Lacticaseibacillus casei, ATCC393
[12] = system: ORG 99 S. epidermidis ATCC 12228; experiment: MIC, aerobic panel, microbroth dilution method; settings: Staphylococcus epidermidis, ATCC12228, read-out: Aerobic Panel MIC
S. aureus = experiment: MIC profiling; settings: Staphylococcus aureus
[13] = system: Streptococcus pneumoniae, ATCC 49619; experiment: MIC, microbroth dilution method; settings: ATCC49619
[14] = system: Lactobacillus acidophilus, ATCC 4356; experiment: MIC, agar dilution method; type: cell-based; settings: ATCC4356
[15] = system: Clostridium perfringens, ATCC 13124; experiment: microbe, parasite or virus in culture; type: cell-based; settings: ATCC13124
[16] = system: Lactobacillus rhamnosus, ATCC 7496; experiment: MIC, agar dilution method; type: cell-based
physchem = type: physicochemical; settings: water; read-out: Aqueous solubility
[17] = system: Staphylococcus aureus, ATCC 29213; experiment: MIC, microbroth dilution method
[18] = system: Staphylococcus aureus, ATCC 33591 (Methicilin resistant); experiment: MIC, microbroth dilution method
[19] = in vivo, po
[20] = system: Clostridium difficile, ATCC 43255; experiment: MIC, agar dilution method; type: cell-based; settings: Clostridioides difficile, ATCC43255
Description: (§1) Agar Dilution Method: (1)
(§2) This method was used for anaerobic organisms (Bacteroides, Clostridium, Bifidiobacteria, Prevotella, Fusobacterium, Peptococcus, Peptostreptococcus, Veillonella) and microaerophilic Lactobacillus spp, all of which were purchased form American Type Culture Collection (ATCC):
(§3) 1. Two fold dilutions of compounds were made in Brucella agar supplemented with hemin, vitamin K and 5% laked sheep blood to achieve a final concentration range from 0.016 μg/mL to 16 μg/mL.
(§4) 3. Plates were incubated in an anaerobic chamber at 35° C. for 48 hours. For the Lactobacillus strains, Mueller Hinton Agar and an incubation atmosphere of 5% CO2 were used.
(§5) 4. The lowest concentration of an antibiotic showing no growth or marked reduction in growth was read as the MIC.

[21] = system: Clostridium difficile, ATCC 700057; experiment: MIC, agar dilution method; type: cell-based; settings: Clostridioides difficile, ATCC700057
Description: as §1, §2, §3, §4, §5

[22] = system: ORG 150 B. fragilis 25285; experiment: MIC, anaerobic panel, agar dilution method; type: cell-based; settings: Bacteroides fragilis, Table 3, read-out: MIC, panel of anaerobic bacteria
[23] = system: Staphylococcus epidennidis, clinical strain ORG#365; experiment: MIC, microbroth dilution method
[24] = system: Streptococcus pyogenes, ATCC 19615; experiment: MIC, microbroth dilution method
[25] = system: Bifidiobacterium longum, ATCC 15707; experiment: MIC, agar dilution method; type: cell-based; settings: Table 1 gram positive GI flora
[26] = system: Enterococcus faecium, Vancomycin resistant clinical strain ORG#360; experiment: MIC, microbroth dilution method
[27] = system: Peptostreptococcus anaerobius, ATCC 27337; experiment: MIC, agar dilution method; type: cell-based; settings: ATCC27337
[28] = system: Micromonas (formerly Peptostreptococcus) micros, ATCC 33270; experiment: MIC, agar dilution method; type: cell-based; settings: Parvimonas micra, ATCC33270; Micromonas micros ATCC 33270

CN[C@H](CC(C)C)C(=O)N[C@H]1C(=O)N[C@@H](CC(N)=O)C(=O)N[C@H]2C(=O)N[C@H]3C(=O)N[C@H](C(=O)N[C@H](C(=O)O)c4cc(O)cc(O)c4-c4cc3ccc4O)[C@H](O)c3ccc(c(Cl)c3)Oc3cc2cc(c3O[C@@H]2O[C@H](CO)[C@@H](O)[C@H](O)[C@H]2O[C@H]2C[C@](C)(N)[C@H](O)[C@H](C)O2)Oc2ccc(cc2Cl)[C@H]1O [Vancomycin, reference compound]
Fold increase in MIC [1]: 4x
fold increase in MIC values in the presence of 5% fecal material [1]: four fold
MIC ([1]; ATCC700057, read-out: MIC in the presence of 5% fecal material): 8 µg/mL

CCc1c(Cl)c(O)c(Cl)c(O)c1C(=O)O[C@H]1[C@H](O)[C@H](OC)[C@H](OC/C2=C\C=C\C[C@H](O)/C(C)=C/[C@H](CC)[C@@H](O[C@@H]3OC(C)(C)[C@@H](O)[C@H](O)[C@@H]3O)/C(C)=C/C(C)=C/C[C@@H]([C@@H](C)O)OC2=O)O[C@@H]1C [Formula II]
MIC [2]: > 32 µg/mL
MIC [3]: 16 to 64 µg/mL
MIC (E. faecium): > 16 µg/mL
MIC [4]: 64 µg/mL
MIC ([5]; ATCC19434): > 64 µg/mL
MIC ([5]; ATCC19434, read-out: Aerobic Panel MIC): > 64 µg/mL
MIC [6]: 4 µg/mL
MIC values relative to those of OPT-80 [7]: four to sixteen fold greater
MIC [8]: > 64 µg/mL
MIC [9]: 8 µg/mL
MIC [10]: > 64 µg/mL
MIC [11]: 8 µg/mL
MIC [12]: > 32 µg/mL
MIC (S. aureus): > 16 µg/mL
MIC [13]: > 64 µg/mL
MIC [14]: > 16 µg/mL
MIC [15]: 1 µg/mL
MIC ([16]; Lacticaseibacillus rhamnosus, ATCC7496, L. rhamnosus, read-out: MIC): > 16 µg/mL
MIC ([16]; Lactobacillus rhamnosus ATCC 7496): >16 µg/mL
solubility (physchem): ~300 mg/mL
MIC ([17]; ATCC29213): > 64 µg/mL
MIC ([17]; ATCC29213 / MSSA, read-out: Aerobic Panel MIC): > 64 µg/mL
MIC ([18]; ATCC33591): > 64 µg/mL
MIC ([18]; ATCC33591 / MRSA, read-out: Aerobic Panel MIC): > 64 µg/mL
levels detected in plasma [19]: most of which fell below the limit of quantification
MIC [20]: 4 µg/mL
MIC ([21]; Clostridium difficile ATCC 700057, Table 1 gram positive GI flora, read-out: MIC): 2 µg/mL
MIC ([21]; ORG 830 C. difficile ATCC 700057, Table 3, read-out: MIC, panel of anaerobic bacteria): 0.5 to 1 µg/mL
MIC [22]: > 16 µg/mL
Fold increase in MIC ([1]; Brucella broth with feces vs Brucella broth only, C. difficile ATCC 700057): 4x
activity against C. difficile compared with vancomycin ([1]; C. difficile): as active as vancomycin
fold increase in MIC values in the presence of 5% fecal material ([1]; C. difficile ATCC strain 700057): four fold
MIC ([1]; ATCC700057, C. difficile ATCC strain 700057, read-out: MIC in the presence of 5% fecal material): 4 µg/mL
MIC ([1]; ATCC700057, Diluent Brucella broth only, C. difficile ATCC 700057, read-out: MIC): 1 µg/mL
MIC ([1]; ATCC700057, Diluent Brucella broth with feces (5% fecal slurry), C. difficile ATCC 700057, read-out: MIC): 4 µg/mL
MIC [23]: 64 µg/mL
MIC ([24]; ATCC19615): > 64 µg/mL
MIC ([24]; ATCC19615, read-out: Aerobic Panel MIC): > 32 µg/mL
MIC [25]: 1 µg/mL
MIC [26]: > 64 µg/mL
MIC [27]: 0.25 µg/mL
MIC [28]: 1 µg/mL
